Source: the supplement of paper PMC10307832

Assays:
Experiment in all cases: relative viability (nuclei count vs DMSO), 5 days (fraction); higher = more cells survive
[1] = compound: COC1=C(C=C(C=C1)C2=CC3=NC=CN3C(=N2)NC4=C(C=CC=N4)C(=O)N)OC [BAY61-3606] + N=C(N)NC(=N)NCCc1ccccc1 [Phenformin] (partner 250 µM)
Outline: (§1)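 Nuclei were stained with Hoechst during a one-step fixation (final 0.05% Triton X-100, 1% formaldehyde, 1 ug/ml Hoechst) carried out 5 days after dosing, then counted on 4× images. The cells, lung cancer lines in 1536-well plates, had been dosed by pin tool the day after seeding with one drug alone or a fixed anchor-drug dose plus five library-drug doses (not always all listed) in √10 steps. Relative viability is the nuclei count in treated wells divided by that in vehicle wells, and each value is the median of duplicate plates.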

[2] = compound: COC1=C(C=C(C=C1)C2=CC3=NC=CN3C(=N2)NC4=C(C=CC=N4)C(=O)N)OC [BAY61-3606] + Cc1nc(NC(=O)N2CCC[C@H]2C(N)=O)sc1-c1ccnc(C(C)(C)C(F)(F)F)c1 [Alpelisib] (partner 2 µM)
Outline: as §1

[3] = compound: COc1cccc2c1C(=O)c1c(O)c3c(c(O)c1C2=O)C[C@@](O)(C(=O)CO)C[C@@H]3O[C@H]1C[C@H](N)[C@H](O)[C@H](C)O1 [Doxorubicin] + O=C(CCCCCCC(=O)Nc1ccccc1)NO [Vorinostat] (partner 1 µM)
Outline: as §1

[4] = compound: COC1=C(C=C(C=C1)C2=CC3=NC=CN3C(=N2)NC4=C(C=CC=N4)C(=O)N)OC [BAY61-3606] + CC(=O)Nc1cccc(-n2c(=O)n(C3CC3)c(=O)c3c(Nc4ccc(I)cc4F)n(C)c(=O)c(C)c32)c1 [Trametinib] (partner 0.02 µM)
Outline: as §1

Row | Cell Line | relative viability ([1]; first compound 0.02 µM) | relative viability ([1]; first compound 0.06325 µM) | relative viability ([1]; first compound 0.2 µM) | relative viability ([1]; first compound 0.6325 µM) | relative viability ([1]; first compound 2 µM) | relative viability ([2]; first compound 0.02 µM) | relative viability ([2]; first compound 0.2 µM) | relative viability ([2]; first compound 0.6325 µM) | relative viability ([2]; first compound 2 µM) | relative viability ([3]; first compound 0.001 µM) | relative viability ([3]; first compound 0.003162 µM) | relative viability ([3]; first compound 0.01 µM) | relative viability ([3]; first compound 0.03162 µM) | relative viability ([3]; first compound 0.1 µM) | relative viability ([4]; first compound 0.02 µM) | relative viability ([4]; first compound 0.06325 µM) | relative viability ([4]; first compound 0.2 µM) | relative viability ([4]; first compound 0.6325 µM) | relative viability ([4]; first compound 2 µM) | relative viability ([2]; first compound 0.06325 µM)
1 | LCLC-97TM1 | 0.419 | 0.441 | 0.455 | 0.415 | 0.451 | 0.232 | 0.244 | 0.231 | 0.238 | 0.785 | 0.909 | 0.73 | 0.707 | 0.703 | 0.207 | 0.195 | 0.203 | 0.187 | 0.205 | –
2 | LCLC-103H | 0.342 | 0.328 | 0.297 | 0.328 | 0.352 | 0.94 | 0.981 | 1.03 | 1.04 | 0.775 | 0.823 | 0.779 | 0.811 | 0.902 | 0.708 | 0.715 | 0.666 | 0.654 | 0.65 | 0.965
3 | LK-2 | 0.389 | 0.307 | 0.368 | 0.463 | 0.221 | 1.11 | 1.17 | 1.15 | 0.996 | 0.318 | 0.311 | 0.266 | 0.23 | 0.307 | 0.727 | 0.806 | 0.897 | 0.915 | 0.683 | 0.874
4 | LOU-NH91 | 0.716 | 0.697 | 0.695 | 0.702 | 0.649 | 0.764 | 0.73 | 0.798 | 0.541 | – | 0.892 | 0.853 | 0.615 | 0.331 | 0.842 | 0.766 | 0.826 | 0.794 | 0.706 | 0.643
5 | LU99A | 0.938 | 0.759 | 0.735 | 0.755 | 0.708 | 0.508 | 0.508 | 0.492 | 0.251 | 0.518 | 0.474 | 0.442 | 0.409 | 0.519 | 0.485 | 0.57 | 0.534 | 0.503 | 0.47 | 0.521
6 | LXF-289 | 0.494 | 0.526 | 0.462 | 0.549 | 0.491 | 0.991 | 1.03 | 1.14 | 1.05 | 0.703 | 0.787 | 0.745 | 0.805 | 0.744 | 0.694 | 0.673 | 0.722 | 0.752 | 0.766 | 1.09
7 | NCI-H23 | 0.85 | 0.796 | 0.764 | 0.78 | 0.714 | 0.776 | 0.653 | 0.829 | 0.41 | 0.551 | 0.808 | 0.654 | 0.464 | 0.363 | 0.437 | 0.347 | 0.348 | 0.393 | 0.372 | 0.594
8 | NCI-H322M | 0.824 | 0.71 | 0.812 | 0.773 | 0.626 | 0.9 | 0.852 | 0.898 | 0.841 | 1.01 | 0.836 | 0.85 | 0.769 | 0.57 | 0.533 | 0.522 | 0.542 | 0.499 | 0.486 | 0.792
9 | NCI-H358 | 0.371 | 0.32 | 0.351 | 0.244 | 0.158 | 0.996 | 0.732 | 0.643 | 0.228 | 0.838 | 0.679 | 0.407 | 0.138 | 0.101 | 0.137 | 0.158 | 0.143 | 0.146 | 0.0995 | 0.753
10 | NCI-H441 | 0.818 | 0.934 | 0.782 | 0.972 | 0.652 | 0.734 | 0.809 | 0.848 | 0.439 | 0.87 | 0.962 | 0.75 | 0.279 | 0.372 | 0.491 | 0.417 | 0.363 | 0.483 | 0.371 | 0.796
11 | NCI-H460 | 0.549 | 0.48 | 0.494 | 0.493 | 0.106 | 0.58 | 0.482 | 0.398 | 0.174 | 0.654 | 0.639 | 0.492 | 0.063 | 0.0329 | 0.153 | 0.173 | 0.134 | 0.117 | 0.104 | 0.442
12 | NCI-H520 | 0.552 | 0.446 | 0.659 | 0.67 | 0.51 | 1.07 | 1.11 | 1.04 | 1.02 | 0.757 | 0.733 | 0.788 | 0.596 | 0.564 | 0.685 | 0.704 | 0.751 | 0.85 | 0.644 | 0.801
13 | NCI-H596 | 0.803 | 0.806 | 0.793 | 0.793 | 0.737 | 0.428 | 0.108 | 0.479 | 0.407 | 0.533 | 0.594 | 0.641 | 0.605 | 0.632 | 0.879 | 0.793 | 0.701 | 1.01 | 0.696 | 0.482
14 | NCI-H647 | 0.562 | 0.294 | 0.496 | 0.393 | 0.29 | 1.02 | 0.922 | 1.03 | 0.534 | 0.546 | 0.671 | 0.387 | 0.132 | 0.189 | 0.479 | 0.496 | 0.413 | 0.551 | 0.319 | 1.36
15 | NCI-H650 | 0.435 | 0.42 | 0.375 | 0.428 | 0.405 | 1.27 | 1 | 1.1 | 0.871 | 0.553 | 0.505 | 0.422 | 0.355 | 0.432 | 1.09 | 1.05 | 0.922 | 0.93 | 0.838 | 1.12
16 | NCI-H661 | 0.271 | 0.283 | 0.28 | 0.254 | 0.248 | 0.754 | 0.694 | 0.57 | 0.689 | 0.737 | 0.82 | 0.695 | 0.577 | 0.495 | 0.638 | 0.585 | 0.551 | 0.633 | 0.541 | 0.571
